Test results from ChEMBL document CHEMBL3244076, “N,N'-(Phenylene)dioxamic acids and their esters as antiallergy agents” (1978).

Legend:
Assay type in all cases: functional
Rattus norvegicus [1] = assay: Antiallergic activity in po dosed anti-egg albumin homocytotropic antibody-sensitized Sprague-Dawley rat assessed as lowest concentration required for >20% inhibition of passive cutaneous anaphylaxis reaction administered prior to antigen egg albumin challenge
Rattus norvegicus [2] = assay: Antiallergic activity in anti-egg albumin homocytotropic antibody-sensitized Sprague-Dawley rat assessed as inhibition of passive cutaneous anaphylaxis reaction at 50 mg/kg, po administered 5 mins prior to antigen egg albumin challenge
Rattus norvegicus [3] = assay: Antiallergic activity in anti-egg albumin homocytotropic antibody-sensitized Sprague-Dawley rat assessed as time of peak action for inhibition of passive cutaneous anaphylaxis reaction at 50 mg/kg, po administered prior to antigen egg albumin challenge
Rattus norvegicus [4] = assay: Antiallergic activity in anti-egg albumin homocytotropic antibody-sensitized Sprague-Dawley rat assessed as inhibition of passive cutaneous anaphylaxis reaction at 50 mg/kg, po administered 60 mins prior to antigen egg albumin challenge
Rattus norvegicus [5] = assay: Antiallergic activity in anti-egg albumin homocytotropic antibody-sensitized Sprague-Dawley rat assessed as inhibition of passive cutaneous anaphylaxis reaction at 50 mg/kg, po administered 120 mins prior to antigen egg albumin challenge
Rattus norvegicus [6] = assay: Antiallergic activity in anti-egg albumin homocytotropic antibody-sensitized Sprague-Dawley rat assessed as inhibition of passive cutaneous anaphylaxis reaction at 50 mg/kg, po administered 20 mins prior to antigen egg albumin challenge
Rattus norvegicus [7] = assay: Antiallergic activity in anti-egg albumin homocytotropic antibody-sensitized Sprague-Dawley rat assessed as inhibition of passive cutaneous anaphylaxis reaction at 10 mg/kg, po administered 20 mins prior to antigen egg albumin challenge
Rattus norvegicus [8] = assay: Antiallergic activity in anti-egg albumin homocytotropic antibody-sensitized Sprague-Dawley rat assessed as inhibition of passive cutaneous anaphylaxis reaction at 10 mg/kg, po administered 60 mins prior to antigen egg albumin challenge
Rattus norvegicus [9] = assay: Antiallergic activity in anti-egg albumin homocytotropic antibody-sensitized Sprague-Dawley rat assessed as inhibition of passive cutaneous anaphylaxis reaction at 10 mg/kg, po administered 5 mins prior to antigen egg albumin challenge
Rattus norvegicus [10] = assay: Antiallergic activity in iv dosed anti-egg albumin homocytotropic antibody-sensitized Sprague-Dawley rat assessed as inhibition of passive cutaneous anaphylaxis reaction administered at the time of antigen egg albumin challenge
Rattus norvegicus [11] = assay: Antiallergic activity in anti-egg albumin homocytotropic antibody-sensitized Sprague-Dawley rat assessed as inhibition of passive cutaneous anaphylaxis reaction at 0.01 mg/kg, iv administered at the time of antigen egg albumin challenge
Rattus norvegicus [12] = assay: Ratio of disodium cromoglycate ED50 to compound ED50 for antiallergic activity in iv dosed anti-egg albumin homocytotropic antibody-sensitized Sprague-Dawley rat by passive cutaneous anaphylaxis reaction analysis
Rattus norvegicus [13] = assay: Antiallergic activity in anti-egg albumin homocytotropic antibody-sensitized Sprague-Dawley rat assessed as inhibition of passive cutaneous anaphylaxis reaction at 0.001 mg/kg, iv administered at the time of antigen egg albumin challenge

Row | SMILES | LED (Rattus norvegicus [1]) [mg/kg] | inhibition in vivo at 50 mg/kg (Rattus norvegicus [2]) [%] | Time (Rattus norvegicus [3]) [min] | inhibition in vivo at 50 mg/kg (Rattus norvegicus [4]) [%] | inhibition in vivo at 50 mg/kg (Rattus norvegicus [6]) [%] | further results
1 | CCOC(=O)C(=O)Nc1cccc(NC(=O)C(=O)OCC)c1 | 1 | 3 | 20 | 14 | 94 | inhibition in vivo at 50 mg/kg (Rattus norvegicus [5]): 29%
2 | CCOC(=O)C(=O)Nc1cc(C#N)cc(NC(=O)C(=O)OCC)c1 | – | – | – | – | – | inhibition in vivo at 10 mg/kg (Rattus norvegicus [7]): 25%; inhibition in vivo at 10 mg/kg (Rattus norvegicus [8]): 0%; inhibition in vivo at 10 mg/kg (Rattus norvegicus [9]): 95%
3 | O=C([O-])c1cc(=O)c2c(OCC(O)COc3cccc4oc(C(=O)[O-])cc(=O)c34)cccc2o1.[Na+].[Na+] [CROMOLYN SODIUM] | – | – | – | – | – | ED50 (Rattus norvegicus [10]): 2.5 mg/kg
4 | CCOC(=O)C(=O)Nc1cc(C#N)cc(NC(=O)C(=O)OCC)c1Cl [LODOXAMIDE ETHYL] | 0.1 | 100 | 5 | 0 | 31 | –
5 | N#Cc1cc(NC(=O)C(=O)O)c(Cl)c(NC(=O)C(=O)O)c1 [LODOXAMIDE] | – | – | – | – | – | inhibition in vivo at 0.01 mg/kg (Rattus norvegicus [11]): 94%; Ratio ED50 (Rattus norvegicus [12]): 2500; inhibition in vivo at 0.001 mg/kg (Rattus norvegicus [13]): 50%
